Among the data in PubChem BioAssay (NCI) are TGI values, retold here.

Among the test systems are UO-31 renal; MALME-3M melanoma; ACHN renal; K-562 leukemia; A498 renal; NCI/ADR-RES ovarian; SW-620 colon; HOP-92 NSCLC; M14 melanoma; SK-MEL-2 melanoma.
Holding throughout (test): NCI-60 cell line screen, 48 h

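48-hour exposure; five concentrations; linearly interpolated endpoints. TGI is the concentration that stops growth completely.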 Where a SMILES comes first, the peptide text is derived from it. [ ]: non-standard residue; d: D form. The star is where a group is joined. mTyr = N[CH](Cc1cccc(O)c1)C(=O)O; Cbz = O=C(OCc1ccccc1)*; OBn = c1ccc(CO*)cc1 Some results are limits rather than exact numbers.

As for `COc1ccc(CSc2ccccc2Cn2cccc2)cc1OC`, the TGI with UO-31 renal, in the test with MALME-3M melanoma, in the test with ACHN renal, in the test on K-562 leukemia, in the test on A498 renal and in the test with NCI/ADR-RES ovarian was more than 100 µM throughout. This molecule also gave a TGI with SW-620 colon of more than 100 µM.

For `CCNC1=C(NC(=O)CC)C(=O)c2ccccc2C1=O`, the TGI with MALME-3M melanoma was 60.1 µM; in the test on ACHN renal it was more than 100 µM; in the test on HOP-92 NSCLC it was more than 100 µM; in the test on K-562 leukemia it was more than 100 µM; with M14 melanoma, 98.5 µM; with NCI/ADR-RES ovarian, more than 100 µM. The molecule further came in with a TGI with SW-620 colon of more than 100 µM.

Regarding `C=CCOC(=O)C1C2OC3(C(C(=O)OC)=C2C(=O)OC)c2ccccc2CCC13` (stereo not drawn), the TGI with UO-31 renal, in the test on MALME-3M melanoma, in the test on ACHN renal, in the test with K-562 leukemia, in the test with A498 renal and in the test on SK-MEL-2 melanoma was more than 10 µM each time. Besides, the TGI in the test on M14 melanoma, in the test on NCI/ADR-RES ovarian and in the test with SW-620 colon was more than 10 µM each time.

Take `CN(C)CCCN1c2ccccc2CCc2ccc([N+](=O)[O-])cc21`: the TGI is 76 µM in the test on UO-31 renal; 35.2 µM in the test with MALME-3M melanoma; more than 100 µM in the test on ACHN renal; more than 100 µM with K-562 leukemia; 40.3 µM in the test on A498 renal; 43.9 µM with SK-MEL-2 melanoma. Besides, the values for the TGI in the test on M14 melanoma, in the test with NCI/ADR-RES ovarian and in the test with SW-620 colon were 30.6 µM, 42.1 µM and more than 100 µM, respectively.

With `O[C@H]1[C@H](O)[C@@H](O)[C@@]2(O)C[C@@H](O)[C@@H]1N2`, the TGI in the test on UO-31 renal, in the test on MALME-3M melanoma, with ACHN renal, with HOP-92 NSCLC, in the test with K-562 leukemia and in the test with A498 renal was more than 100 µM throughout. Moreover, the TGI in the test on M14 melanoma, with NCI/ADR-RES ovarian and with SW-620 colon was more than 100 µM each time.

Take `COc1ccc(/C=C2\CN(C)C/C(=C\c3ccc(OC)c(OC)c3OC)C2=O)c(OC)c1OC`: the TGI with MALME-3M melanoma stood at 0.333 µM; in the test with ACHN renal, 0.565 µM; in the test with HOP-92 NSCLC it was 1.73 µM; with A498 renal it was 0.313 µM; in the test on SK-MEL-2 melanoma, 2.4 µM; in the test on M14 melanoma it was 0.283 µM. The same molecule yielded a TGI with SW-620 colon of 0.425 µM.

For the molecule `CCN(c1cccc(NC(=S)Nc2ccccc2N(CC)c2cc(-c3ccccc3)no2)c1)c1cc(-c2ccccc2)no1`, the TGI in the test on UO-31 renal, in the test with MALME-3M melanoma, with ACHN renal, with HOP-92 NSCLC, in the test on K-562 leukemia and in the test on SK-MEL-2 melanoma was more than 100 µM in each case. Also, the TGI in the test on M14 melanoma, in the test with NCI/ADR-RES ovarian and in the test with SW-620 colon was more than 100 µM throughout.

On to `O=C(Cc1ccccc1)NN1C(=O)C(Cl)C1c1ccccc1O` (stereo not drawn), for which the TGI with UO-31 renal is 36.8 µM; in the test on MALME-3M melanoma it was 86.1 µM; with ACHN renal, more than 100 µM; in the test on K-562 leukemia, more than 100 µM; with SK-MEL-2 melanoma, more than 100 µM; in the test on M14 melanoma, 30.9 µM. The TGI with SW-620 colon was more than 100 µM.

As to `O=c1onc2c3ccccc3ncn12`, the TGI in the test with UO-31 renal, in the test on ACHN renal, in the test with HOP-92 NSCLC, with K-562 leukemia, with A498 renal and in the test on SK-MEL-2 melanoma was more than 100 µM in each case. Moreover, the TGI with M14 melanoma, in the test with NCI/ADR-RES ovarian and in the test with SW-620 colon was more than 100 µM in each case.

As for `COC(=O)C(Cc1cccc(O)c1)NC(=O)C(CC(=O)OCc1ccccc1)NC(=O)OCc1ccccc1` (stereo not drawn) (Cbz-Asp(OBn)-[mTyr]-OMe; configuration not given here), the TGI in the test with UO-31 renal, in the test with MALME-3M melanoma, with ACHN renal, in the test with HOP-92 NSCLC, with K-562 leukemia and with A498 renal was more than 100 µM each time. The TGI in the test with SK-MEL-2 melanoma, with M14 melanoma and in the test with SW-620 colon was more than 100 µM each time.

Regarding `Cc1ccc(CC(C)N)cc1` (stereo not drawn), the TGI in the test with UO-31 renal, in the test with MALME-3M melanoma, in the test with ACHN renal, with HOP-92 NSCLC, in the test on K-562 leukemia and with A498 renal was more than 100 µM in each case. Besides, the TGI in the test with SK-MEL-2 melanoma, in the test on M14 melanoma and in the test on SW-620 colon was more than 100 µM throughout.

`COc1cc2c(cc1OC)C1(c3ccc(Cl)cc3)ON=C(c3ccccc3)N1CS2` (stereo not drawn): the TGI in the test with UO-31 renal, in the test on MALME-3M melanoma, in the test with ACHN renal, with HOP-92 NSCLC, in the test on K-562 leukemia and with A498 renal was more than 100 µM throughout. The TGI in the test on SK-MEL-2 melanoma, in the test with M14 melanoma and in the test on SW-620 colon was more than 100 µM throughout.

Regarding `O=C(CC(=O)Nc1ccccc1)N/N=C/c1cc(N=Nc2ccc(Br)cc2)ccc1O`, the TGI in the test with UO-31 renal was 7.93 µM; in the test with MALME-3M melanoma, more than 10 µM; in the test on HOP-92 NSCLC, more than 10 µM; in the test with K-562 leukemia it was more than 10 µM; with M14 melanoma, more than 10 µM; in the test on NCI/ADR-RES ovarian it was more than 10 µM. The same molecule had a TGI with SW-620 colon of more than 10 µM.

As to `COc1ccc(N=C2C(=Nc3ccc(OC)cc3)N(c3ccccc3)C(=S)N2N=C=C2Sc3ccccc3N2C)cc1`, the TGI in the test with UO-31 renal, in the test with MALME-3M melanoma, in the test on ACHN renal, in the test on HOP-92 NSCLC, with K-562 leukemia and in the test with SK-MEL-2 melanoma was more than 100 µM each time. For the same molecule, the TGI in the test on M14 melanoma, in the test on NCI/ADR-RES ovarian and in the test on SW-620 colon was more than 100 µM throughout.

Turning to `CC(NC(C)(C)C)C(=O)c1cccc(Cl)c1` (stereo not drawn), the TGI with MALME-3M melanoma, in the test on ACHN renal, in the test on K-562 leukemia, in the test with A498 renal, with SK-MEL-2 melanoma and with M14 melanoma was more than 100 µM each time. Also, in the test on SW-620 colon, the TGI was more than 100 µM.
